Laboratory results as given in PMC3025922 (BMC Biology, 2010).
Like-named read-outs stand apart in the source and are kept apart here.

Tested on: nuclear p27 in LNCaP-S14 cells
Format: cell-based, human
[1] = primary screening, nuclear p27 in LNCaP-S14 cells
[2] = primary screening, S = strong, M = medium, W = weak by Z score

SMILES | hit in primary screen (increased percentage of p27 positive cells) (LNCaP-S14, ~5 to 35 μM, 18 h) | Z score (aver) [1] | Clasf [2] | Clasf | Z score (aver)
C=CCNC1=C2C[C@@H](C)C[C@H](OC)[C@H](O)[C@@H](C)/C=C(\C)[C@H](OC(N)=O)[C@@H](OC)/C=C\C=C(/C)C(=O)NC(=CC1=O)C2=O [17-N-allylamino-17-demethoxygeldanamycin, reference compound] | identified | – | – | – | –
CCC1C=CC=CCC(C)C(O)C(C)(O)C(=O)C(C)C(O)C(C)C(=O)C(C)C(O)C(C)C=CC(=O)OC2C(C)C(CC1)OC1(CCC(C)C(CC(C)O)O1)C2C (stereo not shown) [500B11] | – | 3.61 | M (medium (Z score 3-5)) | – | –
CCCCCCc1ccc(O)cc1O [500E16] | – | 3.71 | M (medium (Z score 3-5)) | – | –
CC(C)COCC(CN(Cc1ccccc1)c1ccccc1)N1CCCC1.Cl (stereo not shown) [500F12] | – | 5.49 | S (strong (Z score > 5)) | – | –
CCN(CC)CCOC(=O)C(c1ccccc1)C1CCCCC1.Cl (stereo not shown) [500G17] | – | 2.62 | W (weak (Z score 2-3) | – | –
O=C(O)C1CCCNC1 (stereo not shown) [500H10] | – | – | – | M (key: S: strong (Z score > 5); M: medium (Z score 3-5); W: weak (Z score 2-3) | 3.12
CCN(CC)CCOC(=O)C1(C2CCCCC2)CCCCC1.Cl [500I04] | – | 5.96 | S (strong (Z score > 5)) | – | –
Cl.N=C(N)NC(=O)c1nc(Cl)c(N)nc1N [500J04] | – | 2.43 | W (weak (Z score 2-3) | – | –
Clc1ccc(CSC(Cn2ccnc2)c2ccc(Cl)cc2Cl)cc1.O=[N+]([O-])O (stereo not shown) [500K22] | – | 3.37 | M (medium (Z score 3-5)) | – | –
NCC(O)c1ccc(O)c(O)c1 (stereo not shown) [500L12] | – | 9.42 | S (strong (Z score > 5)) | – | –
CN(C)c1ccc(O)c2c1CC1CC3C(N(C)C)C(O)=C(C(N)=O)C(=O)C3(O)C(O)=C1C2=O.Cl (stereo not shown) [501G12] | – | 5.15 | S (strong (Z score > 5)) | – | –
Oc1ccc(Cl)cc1Cc1cc(Cl)ccc1O [501G22] | – | 4.38 | M (medium (Z score 3-5)) | – | –
C[n+]1cc2c3c(ccc2c2ccc4cc5c(cc4c21)OCO5)OCO3.O=[N+]([O-])[O-] [501I17] | – | 4.78 | M (medium (Z score 3-5)) | – | –
COC1CC(CC2CCC(C)C(C(C)C(=O)[O-])O2)OC2(OC(C)(C3CCC(C)(C4OC(C5OC(O)(CO)C(C)CC5C)CC4C)O3)CC2C)C1C.[Na+] (stereo not shown) [501K17] | – | 5.95 | S (strong (Z score > 5)) | – | –
CCC1(O)CC(OC2CC(N(C)C)C(OC3CC(O)C(OC4CCC(=O)C(C)O4)C(C)O3)C(C)O2)c2c(cc3c(c2O)C(=O)c2c(O)cccc2C3=O)C1C(=O)OC (stereo not shown) [502B20] | – | 3.61 | M (medium (Z score 3-5)) | – | –
CC(C)CC1C(=O)N2CCCC2C2(O)OC(NC(=O)C3C=C4c5cccc6[nH]c(Br)c(c56)CC4N(C)C3)(C(C)C)C(=O)N12.CS(=O)(=O)O (stereo not shown) [502C19] | – | 2.62 | W (weak (Z score 2-3) | – | –
Cc1cc(C2CCCCC2)n(O)c(=O)c1.NCCO [502D07] | – | 4.86 | M (medium (Z score 3-5)) | – | –
CCCCC(CC)CNC(=N)NC(=N)NCCCCCCNC(=N)NC(=N)NCC(CC)CCCC.Cl (stereo not shown) [502E04] | – | 9.20 | S (strong (Z score > 5)) | – | –
CC=C(C(=CC)c1ccc(O)cc1)c1ccc(O)cc1 [502G13] | – | 2.95 | W (weak (Z score 2-3) | – | –
CCC(C(=O)[O-])C1CCC(C)C(C(C)C(O)C(C)C(=O)C(CC)C2OC3(C=CC(O)C4(CCC(C)(C5CCC(O)(CC)C(C)O5)O4)O3)C(C)CC2C)O1.[Na+] (stereo not shown) [502H07] | – | 6.22 | S (strong (Z score > 5)) | – | –
NC(CO)(CO)CO.O=C(c1ccccc1)c1ccc2n1CCC2C(=O)O (stereo not shown) [502J18] | – | 2.67 | W (weak (Z score 2-3) | – | –
Cc1ccc(-c2cc(C(F)(F)F)nn2-c2ccc(S(N)(=O)=O)cc2)cc1 [502M15] | – | 2.59 | W (weak (Z score 2-3) | – | –

SMILES | hit in primary screen (increased percentage of p27 positive cells) (LNCaP-S14, ~5 to 35 μM, 18 h) | Z score (aver) [1] | Clasf [2] | Clasf | Z score (aver)
CCCCCc1cc(O)c2c(c1)OC(C)(C)c1ccc(C)cc1-2 [503C05] | – | 5.93 | S (strong (Z score > 5)) | – | –
COC12C(COC(N)=O)C3=C(C(=O)C(C)=C(N)C3=O)N1CC1NC12 (stereo not shown) [503O09] | – | – | – | M (key: S: strong (Z score > 5); M: medium (Z score 3-5); W: weak (Z score 2-3) | 4.55
CS(=O)(=O)c1ccc(F)c(N2C(=O)C=CC2=O)c1 [518H15] | – | 7.59 | S (strong (Z score > 5)) | – | –
CS(=O)(=O)c1ccc(C=CC(=O)Nc2cccc(C(F)(F)F)c2)cc1 [518N13] | – | 5.55 | S (strong (Z score > 5)) | – | –
CS(=O)(=O)c1ccc(C=CC(=O)Nc2ccccn2)cc1 [518N17] | – | 4.22 | M (medium (Z score 3-5)) | – | –
CS(=O)(=O)c1ccc2[nH]c(C(=O)N3CCN(c4ncccc4C(F)(F)F)CC3)cc2c1 [519A06] | – | 2.71 | W (weak (Z score 2-3) | – | –
Cl.O=C(OC(CCCN1CCOCC1)c1ccc(F)cc1)C(c1ccccc1)c1ccccc1 (stereo not shown) [519B04] | – | 2.10 | W (weak (Z score 2-3) | – | –
COc1ccccc1CNC1CC(C)(C)n2cccc21 (stereo not shown) [519F12] | – | 2.47 | W (weak (Z score 2-3) | – | –
CCOC(=O)c1cc2cccc(NC(=O)c3ccccc3OC(C)=O)c2[nH]1 [519O17] | – | 9.25 | S (strong (Z score > 5)) | – | –
CCN(C(=O)c1ccc(C(C)(C)C)cc1)c1ccc(Sc2nc(C)cc(C)n2)cc1 [519P04] | – | 5.16 | S (strong (Z score > 5)) | – | –
CC(C)(C)c1cc2cc(NC(=O)C3CC3)ccc2[nH]1 [520D04] | – | 2.80 | W (weak (Z score 2-3) | – | –
CC(C)(C)c1cc2cc(NC(=O)c3cccs3)ccc2[nH]1 [520D16] | – | 3.98 | M (medium (Z score 3-5)) | – | –
CC(=O)N1CCC(N(C(=O)C2CC2)c2ccc3c(c2)CCN3C(C)=O)CC1 [520E02] | – | 2.46 | W (weak (Z score 2-3) | – | –
CCOC(=O)c1cc2cccc(NS(=O)(=O)c3cccc(C(F)(F)F)c3)c2[nH]1 [520F11] | – | 7.25 | S (strong (Z score > 5)) | – | –
CC1CN(C(=O)c2cc(-c3ccc(Cl)cc3)cs2)CC(C)O1 (stereo not shown) [520H18] | – | 6.87 | S (strong (Z score > 5)) | – | –
CC(C)(C)c1cc2cc(NC3CCN(C(=O)c4ccccc4Cl)CC3)ccc2[nH]1 [520N14] | – | 2.16 | W (weak (Z score 2-3) | – | –
Cc1cc(C)nc(N2CCN(C(=O)C(c3ccccc3)c3ccccc3)CC2)n1 [521H09] | – | 2.35 | W (weak (Z score 2-3) | – | –
O=C(Nc1ccccc1)Nc1ccc(SCc2nc(OCC(F)(F)F)cc(OCC(F)(F)F)n2)cc1 [521I09] | – | 3.70 | M (medium (Z score 3-5)) | – | –
CC(C)(C)c1ccc(S(=O)(=O)Nc2ccc3[nH]c(C(C)(C)C)cc3c2)cc1 [521I15] | – | 7.27 | S (strong (Z score > 5)) | – | –
COc1ccc(S(=O)(=O)Nc2ccc3[nH]c(C(C)(C)C)cc3c2)cc1 [521I17] | – | 3.94 | M (medium (Z score 3-5)) | – | –
CC(C)(C)c1cc2cc(NS(=O)(=O)c3ccc(Cl)cc3)ccc2[nH]1 [521I19] | – | 9.14 | S (strong (Z score > 5)) | – | –
